Data as given in publication PMC4838304, “Effective Design of Multifunctional Peptides by Combining Compatible Functions” (PLoS Computational Biology, 2016).
Ends that are not written are not given here.

Columns and labels:
pGREG546 plasmid = test: Electrophoretic mobility shift assay (EMSA), DNA retention; format: binding; details: 1μg pGREG546, DNA to peptide charge ratio 1:1 or 1:4, 30 minutes
Text: To test the ability of the designed peptides to bind nucleic acids, we evaluated by electrophoretic mobility shift assays (EMSAs) the retention of DNA by the designed peptides. Each EMSA was executed with peptide quantities that were multiples of the DNA to peptide charge ratio. A DNA to peptide charge ratio of 1:1 is represented by the number of positive charges of the peptide required to neutralize the negative charges of the DNA backbone. Retention in the gel is an indirect measure of the fraction of positive charges within the peptide participating in binding the DNA molecules. All EMSA assays were performed using the yeast plasmid pGREG546. As negative control, pGREG546 without any peptide was used, and as positive control the known DNA-binding cell penetrating peptide MPG was used. […] However, retention in the gel was observed when NLS was joined to any larger peptide fragment.
Fig 4 DNA binding. (A) Quantification of DNA retention obtained from three independent electrophoretic mobility shift assays. All measurements are shown and horizontal bars denote the sample mean. Representative gels are shown in (B-C).
1μg of pGREG546 plasmid was pre-incubated with the required quantity of each peptide to result in a 1:1 or 1:4 peptide charge to DNA charge ratio. Samples were incubated for 30 minutes and loaded on a 1% Agarose gel in SB buffer. DNA affinity was quantified by measuring the mean pixel intensity of the DNA bands with Fiji (http://fiji.sc) and normalizing to the intensity range between an empty spot on the gel and the intensity of the pGREG546 plasmid without any added peptide. Analysis scripts for the EMSA experiments as well as the raw data can be found with the distributed source code at http://bis.ifc.unam.mx/software/dcf.

[1] = system: Escherichia coli strain DH5α; test: microbe, parasite or virus in culture; format: cell-based; details: for MIC: DH5α, 24 h, read-out: E. coli MIC for 50% inhibition
Text: If CPP, DNA binding and AMP activities are compatible, the designed peptides should inhibit bacterial growth. Here we exposed E. coli DH5α cells to varying low concentrations of the designed peptides as well as several controls (see Fig 4). […] To test whether α-factor was important for AMP activity we also tested pure α-factor, pure NLS, the optimized NLS fitting CPP rules (NLS-CE) and the Iztli-1 peptide, a previously reported peptide with an embedded α-factor specifically designed to have antibacterial activity. […] A linear trend could be observed between concentration and growth inhibition (regression lines with standard deviations shown in Fig 6). […] The minimal inhibitory concentrations for E. coli are reported in Table 2 (growth curves are shown in S4 Fig).
Fig 6 Antibacterial activity. DH5α E. coli cells were treated with varying concentrations of peptides ranging from 0 to 16 μM for the peptides and 0 to 48 μM for Ampicillin. The relative area under the growth curve measured the growth inhibition. Measurements from four repetitions distributed onto two different plates are shown as dots colored by their respective concentrations. Linear regressions are shown as blue lines and their respective standard errors as blue shades. Dashed lines indicate the mean area under the curve for the H2O controls and its 50% value respectively. Minimal inhibitory concentrations to achieve 50% or 100% of cell growth inhibition are reported.
Escherichia coli strain DH5α was grown for 12 hours to mid-log phase and diluted to 8·10^5 cells/ml by using the reference OD obtained by absorption spectroscopy. Each sample 100μL culture was treated with 50μL solution containing the respective peptide in the desired concentration or water in the case of the controls. Growth curves were measured on two 96 well half area plates with two replicates each followed for 24h using a plate reader (Synergy, USA). In order to minimize plate-specific effects due to variations in loading time or initial cell numbers, different plates measurements were normalized by the time-point where the water control samples reached their half-maximal OD before combining. The respective minimum from each growth curve was subtracted from the normalized data from individual or combined plates. Areas under the curves were obtained by applying a linear interpolation to the OD curves, which was then integrated exactly. Growth rates were obtained by log-transforming the growth curves, identifying the exponential phase by the linear parts in that log-transformation (OD600 between 0.05 and 0.5) and performing a linear regression in the exponential phase with the slope denoting the respective growth rate. All mentioned methodology was implemented in R (www.r-project.org) and is available as open source at http://github.com/cdiener/dcf.
Using the slope of the linear regressions determined in these experiments, we estimated the minimal inhibitory concentration (MIC) for E. coli of our 3 CPP designed peptides (α-NLS-C, NLS-α-CE and chimera) and tested it experimentally.

[2] = E. coli DH5α, peptides 0 to 16 μM

For “FRKWRRKPKKKRKVWWRKVKRRWHWLQLKPGQPMY [NLS-α-CE]”, the “DNA binding in EMSA, in words” value (pGREG546 plasmid) was “effective DNA-binding activity”, the MIC [1] was less than 2 µM and the “concentration abolishing E. coli growth completely” value [1, 2] was 2 µM.

With “KRRWRFVWMNPKKKRKVPPWPYLLWWHWLQLKPGQPMY [chimera]” the “DNA binding in EMSA, in words” value (pGREG546 plasmid) was “effective DNA-binding activity”, the MIC [1] was 4 µM and the “concentration showing partial growth inhibition” value [1, 2] was 2 µM.
